Values quoted from earlier work, collected in patent US10406122B2 (priority 2011, dated 2019).

What was measured:
[1] = tested on: patients undergoing abdominal surgery; settings: within the first 90 minutes of treatment; cited from earlier work
postoperative pain = settings: after 4 to 6 hours, IV or IM intermittent injection; cited from earlier work
[2] = tested on: experienced opioid abusers; settings: cited from earlier work
[3] = tramadol […] [100 mg] p.o., single dose; cited from earlier work

Row | Compound | responder rate (no or slight pain) [1] | reduction of pain intensity (postoperative pain) | ratings of feel drug effect compared to placebo ([2]; IV over 5 minutes) | ratings of liking / ARCI-MBG scale ([2]; tramadol 100 and 200 mg IV, morphine 10 and 20 mg IV, over 5 minutes) | AUC [3] | Cmax [3] | Tmax [3] | t1/2 [3]
1 | CN1CC[C@]23c4c5ccc(O)c4O[C@H]2[C@@H](O)C=C[C@H]3[C@H]1C5 [morphine] | 81.2% | 69.8% | significantly increased ratings | significantly increased ratings |  |  |  | 
2 | (+)-O-desmethyltramadol [(+)-M1] |  |  |  |  | 1258 ± 410 ng·h/mL | 147 ± 39 ng/mL | 1.6 ± 0.5 h | 6.0 ± 1.0 h
